According to ChEMBL document CHEMBL1201862, “PubChem BioAssay data set” (2004):
Calls of active or inactive are those of the source.

Legend:
Protein RecA = molecular target: T1, Protein RecA (Mycobacterium tuberculosis, UniProt P9WHJ3); assay: Fluorescence Cell-Free Homogeneous Dose Retest to Identify Inhibitors of RecA-Intein Splicing Activity. [Related pubchem assays (depositor defined):AID2097, AID2223, AID489010, AID492950]; format: functional
T1 sequence (P9WHJ3 whole entry): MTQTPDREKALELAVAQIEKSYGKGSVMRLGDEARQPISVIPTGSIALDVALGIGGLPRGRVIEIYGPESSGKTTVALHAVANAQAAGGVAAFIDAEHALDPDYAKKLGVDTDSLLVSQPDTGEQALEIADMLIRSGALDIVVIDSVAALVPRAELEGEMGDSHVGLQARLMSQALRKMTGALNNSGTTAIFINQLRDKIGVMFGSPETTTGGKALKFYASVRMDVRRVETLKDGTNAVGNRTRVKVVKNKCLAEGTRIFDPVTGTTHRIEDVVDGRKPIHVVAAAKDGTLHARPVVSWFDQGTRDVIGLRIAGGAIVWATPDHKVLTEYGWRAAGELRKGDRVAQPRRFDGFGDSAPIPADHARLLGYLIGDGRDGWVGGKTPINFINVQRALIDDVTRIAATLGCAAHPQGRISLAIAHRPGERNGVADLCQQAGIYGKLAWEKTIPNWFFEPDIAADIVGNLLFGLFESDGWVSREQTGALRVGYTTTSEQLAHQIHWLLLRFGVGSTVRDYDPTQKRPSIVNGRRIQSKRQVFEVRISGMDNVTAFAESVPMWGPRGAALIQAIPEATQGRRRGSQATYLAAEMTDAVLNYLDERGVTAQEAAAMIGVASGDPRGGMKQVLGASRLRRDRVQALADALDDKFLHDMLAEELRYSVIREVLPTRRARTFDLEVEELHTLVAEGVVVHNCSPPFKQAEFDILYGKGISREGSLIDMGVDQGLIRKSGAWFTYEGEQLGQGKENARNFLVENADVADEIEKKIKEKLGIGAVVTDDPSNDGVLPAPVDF

Beta-galactosidase = Beta-galactosidase (Escherichia coli, UniProt Q8VNN2); format: functional
[1] = molecular target: T2, Replicative DNA helicase DnaB (Mycobacterium tuberculosis, UniProt P9WMR3); assay: DnaB intein splicing inhibitors, dose response, biochemical, cell-free fluorescence (AID 449749); format: functional
T2 sequence (P9WMR3 whole entry): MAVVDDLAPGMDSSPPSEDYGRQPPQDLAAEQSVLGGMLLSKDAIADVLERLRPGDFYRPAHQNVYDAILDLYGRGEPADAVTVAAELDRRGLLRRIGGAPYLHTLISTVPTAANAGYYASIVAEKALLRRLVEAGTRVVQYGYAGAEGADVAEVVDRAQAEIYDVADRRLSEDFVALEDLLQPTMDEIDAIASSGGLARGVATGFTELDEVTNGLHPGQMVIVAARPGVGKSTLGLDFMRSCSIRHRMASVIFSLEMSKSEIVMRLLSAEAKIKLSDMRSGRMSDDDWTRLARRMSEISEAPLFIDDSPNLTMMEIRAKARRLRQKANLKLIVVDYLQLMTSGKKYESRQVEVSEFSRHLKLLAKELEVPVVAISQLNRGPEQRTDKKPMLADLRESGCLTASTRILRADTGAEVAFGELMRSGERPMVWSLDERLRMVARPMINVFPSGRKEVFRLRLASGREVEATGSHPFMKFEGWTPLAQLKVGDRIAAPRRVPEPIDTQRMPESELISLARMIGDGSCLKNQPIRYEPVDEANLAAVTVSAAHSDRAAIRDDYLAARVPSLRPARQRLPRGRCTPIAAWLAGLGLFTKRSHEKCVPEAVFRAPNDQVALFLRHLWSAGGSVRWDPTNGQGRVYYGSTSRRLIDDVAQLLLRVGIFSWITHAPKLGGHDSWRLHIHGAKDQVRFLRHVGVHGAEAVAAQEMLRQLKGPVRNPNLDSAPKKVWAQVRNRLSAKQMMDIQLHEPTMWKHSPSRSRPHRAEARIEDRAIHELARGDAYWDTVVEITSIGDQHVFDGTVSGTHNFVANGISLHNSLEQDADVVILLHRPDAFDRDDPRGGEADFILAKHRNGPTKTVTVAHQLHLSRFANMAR

[2] = molecular target: T3, Delta-type opioid receptor (Homo sapiens, UniProt P41143); assay: HTS Image-Based Screen for Agonists of the DOR Receptor. [Related pubchem assays (depositor defined):AID1777, AID1786, AID2133]; format: functional
[3] = molecular target: T3, Delta-type opioid receptor; assay: HTS Image-Based Screen for Antagonists of the DOR Receptor. [Related pubchem assays (depositor defined):AID1777, AID1785, AID1786, AID2133]; format: functional
Mu-type opioid receptor = Mu-type opioid receptor (Homo sapiens, UniProt P35372); assay: HTS Image-Based Screen for Agonists of the MOR Receptor. [Related pubchem assays (depositor defined):AID1777, AID1785, AID1786, AID2133]; format: functional;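 note: imaging of beta-arrestin GFP recruitment into spots after receptor activation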
[4] = molecular target: T4, Kappa-type opioid receptor (Homo sapiens, UniProt P41145); format: functional
[5] = molecular target: T4, Kappa-type opioid receptor; format: functional; remark: listed apart in the source
[6] = molecular target: Intestinal-type alkaline phosphatase (Homo sapiens, UniProt P09923); assay: inhibition of human intestinal alkaline phosphatase – biochemical, dose response (AID 488876); format: functional
[7] = molecular target: T5, Alkaline phosphatase, tissue-nonspecific isozyme (Homo sapiens, UniProt P05186); assay: TNAP enzyme inhibition by screening hits, dose response, selectivity assay for mouse IAP inhibitor project, biochemical, human TNAP, uHTS hits (AID 488906); format: functional
T5 sequence (P05186 whole entry): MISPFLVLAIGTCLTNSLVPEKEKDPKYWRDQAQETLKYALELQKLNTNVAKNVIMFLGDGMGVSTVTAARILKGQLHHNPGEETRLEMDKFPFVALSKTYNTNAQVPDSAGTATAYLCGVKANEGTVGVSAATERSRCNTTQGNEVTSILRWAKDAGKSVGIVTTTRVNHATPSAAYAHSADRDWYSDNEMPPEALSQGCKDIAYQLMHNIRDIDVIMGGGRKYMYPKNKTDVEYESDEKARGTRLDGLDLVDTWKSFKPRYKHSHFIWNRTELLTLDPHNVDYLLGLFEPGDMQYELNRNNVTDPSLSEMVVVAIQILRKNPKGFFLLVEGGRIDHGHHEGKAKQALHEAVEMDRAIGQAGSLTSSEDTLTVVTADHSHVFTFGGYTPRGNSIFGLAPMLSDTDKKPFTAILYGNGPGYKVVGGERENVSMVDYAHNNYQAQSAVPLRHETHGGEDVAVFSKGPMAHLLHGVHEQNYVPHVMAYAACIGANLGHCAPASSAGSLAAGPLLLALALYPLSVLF

Large T antigen = Large T antigen (Simian virus 40, UniProt P03070); format: functional, Betapolyomavirus macacae;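 note: Confirmatory-stage PubChem screen for compounds that inhibit SV40 T antigen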
[8] = molecular target: T6, Zinc finger protein mex-5 (Caenorhabditis elegans, UniProt Q9XUB2); assay: potency of MEX-5 RNA-binding blockers – biochemical, C. elegans, fluorescence polarization, dose response (AID 1960)
T6 sequence (Q9XUB2 whole entry): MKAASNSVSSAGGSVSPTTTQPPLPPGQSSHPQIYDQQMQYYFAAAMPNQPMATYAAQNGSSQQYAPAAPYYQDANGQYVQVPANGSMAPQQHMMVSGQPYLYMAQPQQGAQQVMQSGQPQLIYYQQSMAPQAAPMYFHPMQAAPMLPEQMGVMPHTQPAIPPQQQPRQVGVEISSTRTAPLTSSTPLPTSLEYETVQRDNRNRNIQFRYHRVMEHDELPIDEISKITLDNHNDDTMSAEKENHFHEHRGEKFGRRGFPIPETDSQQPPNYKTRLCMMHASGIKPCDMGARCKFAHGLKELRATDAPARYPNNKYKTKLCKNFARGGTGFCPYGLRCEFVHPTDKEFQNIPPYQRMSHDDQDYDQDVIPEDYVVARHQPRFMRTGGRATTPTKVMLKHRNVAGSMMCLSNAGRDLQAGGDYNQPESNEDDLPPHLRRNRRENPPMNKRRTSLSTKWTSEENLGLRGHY

[9] = molecular target: T7, RNA-binding protein pos-1 (Caenorhabditis elegans, UniProt G5EF15); assay: disruptors of C. elegans POS-1 RNA interaction – biochemical, fluorescence polarization, dose response (AID 1964);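 note: purified POS-1 fused to maltose binding protein made in E. coli; potency of compounds blocking POS-1 binding to fluorescent RNA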
T7 sequence (G5EF15 whole entry): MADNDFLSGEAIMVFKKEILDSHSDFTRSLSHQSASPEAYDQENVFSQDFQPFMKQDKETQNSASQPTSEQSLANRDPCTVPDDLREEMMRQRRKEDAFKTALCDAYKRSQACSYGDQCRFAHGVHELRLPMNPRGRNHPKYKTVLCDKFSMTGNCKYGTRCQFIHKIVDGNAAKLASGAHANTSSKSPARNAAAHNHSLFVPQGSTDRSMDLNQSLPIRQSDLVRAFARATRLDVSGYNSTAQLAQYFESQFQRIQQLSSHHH

[10] = molecular target: Intestinal-type alkaline phosphatase (Mus musculus, UniProt P24822); assay: PubChem AID 488785; format: functional
Chain of Intestinal-type alkaline phosphatase (Mus musculus, UniProt P24822) (P24822 whole entry): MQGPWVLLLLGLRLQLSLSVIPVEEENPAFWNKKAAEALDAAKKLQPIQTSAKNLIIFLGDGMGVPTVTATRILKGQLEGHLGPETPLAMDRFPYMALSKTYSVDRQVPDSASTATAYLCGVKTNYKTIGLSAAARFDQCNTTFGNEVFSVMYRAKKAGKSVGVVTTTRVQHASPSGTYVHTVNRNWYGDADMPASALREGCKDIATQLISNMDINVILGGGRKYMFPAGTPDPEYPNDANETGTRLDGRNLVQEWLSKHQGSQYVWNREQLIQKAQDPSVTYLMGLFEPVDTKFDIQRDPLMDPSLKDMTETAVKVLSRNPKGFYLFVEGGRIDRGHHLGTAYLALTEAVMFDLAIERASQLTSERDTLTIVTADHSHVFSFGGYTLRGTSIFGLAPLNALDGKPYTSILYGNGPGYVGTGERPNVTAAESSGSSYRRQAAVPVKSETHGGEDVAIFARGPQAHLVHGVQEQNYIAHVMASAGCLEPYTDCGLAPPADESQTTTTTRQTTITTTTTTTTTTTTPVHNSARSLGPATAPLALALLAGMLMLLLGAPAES

T3 sequence (P41143 whole entry): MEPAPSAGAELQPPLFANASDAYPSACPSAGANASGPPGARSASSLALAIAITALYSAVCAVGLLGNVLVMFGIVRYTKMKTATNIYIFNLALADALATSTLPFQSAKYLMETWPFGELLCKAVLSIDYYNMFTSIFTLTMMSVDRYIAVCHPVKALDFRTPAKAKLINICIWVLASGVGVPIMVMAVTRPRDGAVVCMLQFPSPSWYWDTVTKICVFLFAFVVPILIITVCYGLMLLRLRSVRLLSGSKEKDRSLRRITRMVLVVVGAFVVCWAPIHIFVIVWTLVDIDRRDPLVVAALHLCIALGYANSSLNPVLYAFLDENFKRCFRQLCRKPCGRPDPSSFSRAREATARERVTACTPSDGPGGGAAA
T4 sequence (P41145 whole entry): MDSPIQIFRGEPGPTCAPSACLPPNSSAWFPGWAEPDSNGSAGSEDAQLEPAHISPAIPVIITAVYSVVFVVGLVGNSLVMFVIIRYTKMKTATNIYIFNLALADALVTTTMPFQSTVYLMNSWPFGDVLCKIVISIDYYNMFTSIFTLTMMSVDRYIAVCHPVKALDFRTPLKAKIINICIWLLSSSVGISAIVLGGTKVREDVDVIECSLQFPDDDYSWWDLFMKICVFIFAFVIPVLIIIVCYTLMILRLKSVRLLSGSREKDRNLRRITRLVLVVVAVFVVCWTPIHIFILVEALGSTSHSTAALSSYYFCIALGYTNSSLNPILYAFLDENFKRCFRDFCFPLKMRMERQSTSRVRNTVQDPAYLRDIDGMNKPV
Chain of Mu-type opioid receptor (P35372 whole entry): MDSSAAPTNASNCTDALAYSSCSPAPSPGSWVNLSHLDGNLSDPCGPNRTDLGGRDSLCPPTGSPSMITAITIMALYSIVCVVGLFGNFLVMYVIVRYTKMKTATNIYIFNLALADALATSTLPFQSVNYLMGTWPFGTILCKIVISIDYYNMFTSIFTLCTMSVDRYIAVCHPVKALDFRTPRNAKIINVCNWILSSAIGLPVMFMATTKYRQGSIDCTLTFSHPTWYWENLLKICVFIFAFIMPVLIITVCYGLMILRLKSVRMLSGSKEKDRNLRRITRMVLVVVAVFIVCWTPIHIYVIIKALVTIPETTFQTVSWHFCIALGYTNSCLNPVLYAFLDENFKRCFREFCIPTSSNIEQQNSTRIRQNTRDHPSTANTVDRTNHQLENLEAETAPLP
Chain of Intestinal-type alkaline phosphatase (Homo sapiens, UniProt P09923) (P09923 whole entry): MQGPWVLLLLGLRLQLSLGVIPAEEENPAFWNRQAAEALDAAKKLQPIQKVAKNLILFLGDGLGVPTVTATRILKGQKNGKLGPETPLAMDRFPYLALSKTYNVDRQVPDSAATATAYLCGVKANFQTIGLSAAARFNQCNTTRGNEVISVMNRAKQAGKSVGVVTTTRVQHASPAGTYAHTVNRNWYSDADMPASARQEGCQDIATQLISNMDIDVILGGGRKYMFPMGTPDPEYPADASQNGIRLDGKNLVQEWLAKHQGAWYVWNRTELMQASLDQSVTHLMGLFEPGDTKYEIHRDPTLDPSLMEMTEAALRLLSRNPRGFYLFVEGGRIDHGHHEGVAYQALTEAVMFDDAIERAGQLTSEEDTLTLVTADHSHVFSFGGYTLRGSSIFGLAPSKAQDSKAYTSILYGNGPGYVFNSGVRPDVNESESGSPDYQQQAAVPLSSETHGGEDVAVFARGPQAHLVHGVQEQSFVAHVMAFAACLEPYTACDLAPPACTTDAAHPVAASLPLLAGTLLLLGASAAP
Chain of Large T antigen (P03070 whole entry): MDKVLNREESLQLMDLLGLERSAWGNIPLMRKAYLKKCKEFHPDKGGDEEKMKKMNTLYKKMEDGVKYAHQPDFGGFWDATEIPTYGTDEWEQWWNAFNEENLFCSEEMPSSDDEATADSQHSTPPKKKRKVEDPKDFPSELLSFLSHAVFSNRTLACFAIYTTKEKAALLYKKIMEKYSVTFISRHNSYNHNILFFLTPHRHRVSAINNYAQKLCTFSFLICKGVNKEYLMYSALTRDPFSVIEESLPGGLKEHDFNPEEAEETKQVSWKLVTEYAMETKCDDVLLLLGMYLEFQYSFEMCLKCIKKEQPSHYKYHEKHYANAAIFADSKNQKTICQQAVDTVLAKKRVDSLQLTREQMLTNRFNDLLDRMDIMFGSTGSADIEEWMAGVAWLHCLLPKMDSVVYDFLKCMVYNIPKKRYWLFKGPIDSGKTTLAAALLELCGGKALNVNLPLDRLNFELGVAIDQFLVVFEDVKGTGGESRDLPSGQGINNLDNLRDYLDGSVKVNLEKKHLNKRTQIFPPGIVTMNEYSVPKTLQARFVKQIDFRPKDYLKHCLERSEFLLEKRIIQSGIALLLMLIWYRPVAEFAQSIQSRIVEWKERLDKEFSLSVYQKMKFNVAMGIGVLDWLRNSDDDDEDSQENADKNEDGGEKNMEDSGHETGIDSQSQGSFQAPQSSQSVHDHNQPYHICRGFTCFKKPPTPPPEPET
Chain of Beta-galactosidase (Q8VNN2 whole entry): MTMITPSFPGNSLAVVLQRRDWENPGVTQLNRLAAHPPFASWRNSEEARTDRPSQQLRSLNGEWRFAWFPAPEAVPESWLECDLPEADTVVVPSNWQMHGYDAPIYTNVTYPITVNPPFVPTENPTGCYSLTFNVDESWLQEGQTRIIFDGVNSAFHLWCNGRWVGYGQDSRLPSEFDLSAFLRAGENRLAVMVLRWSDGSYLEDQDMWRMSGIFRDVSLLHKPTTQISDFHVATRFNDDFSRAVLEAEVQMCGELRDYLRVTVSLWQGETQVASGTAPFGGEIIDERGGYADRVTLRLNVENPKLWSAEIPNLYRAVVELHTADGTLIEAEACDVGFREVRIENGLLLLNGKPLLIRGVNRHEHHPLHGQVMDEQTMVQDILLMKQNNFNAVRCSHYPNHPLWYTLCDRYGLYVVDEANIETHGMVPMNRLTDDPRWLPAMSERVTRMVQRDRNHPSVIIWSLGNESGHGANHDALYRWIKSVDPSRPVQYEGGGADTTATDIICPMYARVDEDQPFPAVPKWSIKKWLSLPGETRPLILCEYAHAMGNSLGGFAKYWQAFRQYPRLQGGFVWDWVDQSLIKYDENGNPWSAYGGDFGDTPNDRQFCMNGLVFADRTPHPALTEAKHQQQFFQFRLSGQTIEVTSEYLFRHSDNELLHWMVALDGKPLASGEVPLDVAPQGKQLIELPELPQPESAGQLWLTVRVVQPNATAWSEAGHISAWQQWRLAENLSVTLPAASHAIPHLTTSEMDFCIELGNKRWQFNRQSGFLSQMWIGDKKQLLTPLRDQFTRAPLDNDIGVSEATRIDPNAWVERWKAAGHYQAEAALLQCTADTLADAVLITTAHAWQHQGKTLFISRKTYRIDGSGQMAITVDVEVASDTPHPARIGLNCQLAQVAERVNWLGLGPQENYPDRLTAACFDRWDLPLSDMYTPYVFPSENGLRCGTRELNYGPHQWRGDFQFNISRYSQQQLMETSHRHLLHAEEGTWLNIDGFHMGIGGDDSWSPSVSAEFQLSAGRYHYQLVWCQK

For `O=[N+]([O-])c1ccc2nc(Cl)nc(-c3ccccc3)c2c1`, the EC50 (Protein RecA) was > 380 µM (inactive), the EC50 (Beta-galactosidase) was > 31.5 µM (inactive) and the AC50 [1] was 134 µM (active). For the same compound, the EC50 [2] was > 32 µM (inactive), the IC50 [3] was > 32 µM (inactive) and the EC50 (Mu-type opioid receptor) was > 32 µM (inactive). The IC50 [4] was 27.9 µM and the IC50 [5] was 8.95 µM (active).
With `O=C1CNC(=S)N1CCc1ccc(O)c(O)c1` the IC50 [6] was > 100 µM (inactive), the IC50 [7] was > 100 µM (inactive) and the IC50 (Large T antigen) was 39.6 µM (active). For the same compound, the EC50 [8] was 26.8 µM (active), the EC50 [9] was > 300 µM (not active) and the IC50 [10] was 6 µM (active).
